According to patent US9328123B2, “Rotenone derivatives and a use thereof” (priority 2012, dated 2016):

Tests used:
pig pancreatic lipase = pig pancreatic lipase (Sus scrofa (Pig), UniProt P00591); experiment: Pancreatic lipase inhibiting activity (p-nitrophenylbutyrate hydrolysis); assay type: biochemical
Method: To investigate obesity treating effect of the novel rotenoisin A and B, each represented by formula 2 and formula 3 isolated and purified in <Example 2>, pancreatic lipase inhibiting activity of the same was measured.
Particularly, pancreatic lipase inhibiting activity was measured by the conventional method known to those in the art (Kim, J. H.; Kim, H. J.; Park, H. W.; Youn, S. H.; Choi, D. Y.; Shin, C. S. FEMS Microbiol. Lett. 2007, 276, 93.). To prepare the enzyme buffer, […] (10 units) of pig pancreatic lipase solution (Sigma, St. Louis, Mo.) and 1 mM EDTA (pH 6.8) were mixed with 10 mM MOPS (morpholinepropanesulphonic acid), which was added to […] of tris buffer (100 mM Tris-HCl and 5 mM CaCl2, pH 7.0). Then, […] of the rotenoisin A or B of the present invention was mixed with the prepared enzyme buffer at the experimental concentration. […] 20 mL of substrate solution containing 20 mM p-nitrophenylbutyrate dissolved in dimethyl formaide was added to the enzyme buffer, followed by culture for 15 minutes at 37° C. that was the temperature adequate for enzyme reaction. Pancreatic lipase activity was measured by measuring the hydrolysis of p-nitrophenylbutyrate into p-nitrophenol using an ELISA reader (Infinite F200; Tecan Austria GmBH, Grodig, Austria).

3T3-L1 preadipocytes = experiment: Inhibition of differentiation of 3T3-L1 preadipocyte to adipocyte (oil red O staining); assay type: cell-based, mouse; details: 3T3-L1 cell line, concentration of 2 μM
Method: To investigate inhibition effect on adipocyte differentiation in 3T3-L1 preadipocytes, mouse embryo fibroblasts were cultured in DMEM supplemented with 10% FBS to confluency. Two days later (Day 0), the cells were stimulated for the differentiation in DMEM, the differentiation medium supplemented with 10% FBS, 0.5 mM 3-isobutyl-1-methyl-xanthine, […], and […] (Day 2). For the next 6 days, the cells were cultured in DMEM supplemented with 10% FBS and 2 mM insulin (Day 8), followed by further culture in DMEM supplemented with 10% FBS for […] (Day 8). Every medium was added with 100 IU/ml of penicillin and […] of streptomycin. The cells were cultured in the presence of 95% air and 5% CO2. During the whole culture period (Day 0˜Day 8), the treatment of the rotenoisin A and B (2, 0.2, 0.02 uM) of the present invention was performed by the conventional method known to those in the art (Liu, Q.; Shin, E.; Ahn, M. J.; Hwang, B. Y.; Lee, M. K. Nat. Prod. Sci. 2011, 17, 212.) with slight modification. […]
Particularly, intracellular fat lump was stained with oil red O. 8 days after the induction of cell differentiation, the cells were washed with […] twice, followed by fixing in 10% formalin for 1 hour at room temperature. […] For quantitative analysis, oil red O was dissolved with isopropyl alcohol, followed by measuring OD500 using an ELISA reader.

Chain of pig pancreatic lipase (P00591 whole entry): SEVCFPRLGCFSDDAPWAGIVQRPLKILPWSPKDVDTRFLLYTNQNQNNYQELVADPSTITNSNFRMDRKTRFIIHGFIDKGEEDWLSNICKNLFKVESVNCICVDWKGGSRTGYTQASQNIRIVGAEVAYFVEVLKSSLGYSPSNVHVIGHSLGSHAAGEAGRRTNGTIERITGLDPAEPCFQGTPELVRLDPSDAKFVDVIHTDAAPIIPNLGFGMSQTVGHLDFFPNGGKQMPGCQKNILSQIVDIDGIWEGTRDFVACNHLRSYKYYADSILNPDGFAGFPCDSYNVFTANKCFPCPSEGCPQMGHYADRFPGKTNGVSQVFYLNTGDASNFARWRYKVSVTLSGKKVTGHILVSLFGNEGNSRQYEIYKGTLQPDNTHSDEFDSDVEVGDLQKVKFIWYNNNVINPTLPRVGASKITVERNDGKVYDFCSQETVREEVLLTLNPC

SMILES | IC50 (pig pancreatic lipase) | adipocyte differentiation inhibiting activity (3T3-L1 preadipocytes; Day 8) | inhibition at 2 µM (3T3-L1 preadipocytes; Mus musculus, 192 h, Day 8, read-out: adipocyte differentiation inhibiting activity)
C=C(C)[C@H]1Cc2c(ccc3c2O[C@@H]2COc4cc(OC)c(OC)cc4[C@@H]2C3=O)O1 [rotenone] | > 500 µM |  | 
C=C(C)[C@H]1Cc2c(ccc3c2O[C@@H]2COc4cc(OC)c(OC)cc4[C@@H]2C32CO2)O1 (some centres unmarked) [rotenoisin A] | 6.3 ± 0.3 µM | approximately 70% | ~70%
C=C(C)[C@H]1Cc2c(ccc3c2O[C@@H]2COc4cc(OC)c(OC)cc4[C@@H]2[C@]32CC3O[C@]3(O)[C@@H](O)O2)O1 (some centres unmarked) [rotenoisin B] | 28.4 ± 1.2 µM |  | 
